Experimental data: ChEMBL document CHEMBL1149918, “Novel 1,5-benzodiazepindione gastrin/CCKB antagonists” (Bioorg Med Chem Lett, 1997)

Tests used:
[1] = target: T1, Gastrin/cholecystokinin type B receptor (Rattus norvegicus) (UniProt P30553); assay: Tested for selectivity toward gastrin receptor by the ability to block pentagastrin stimulated acid secretion from isolated rat gastric mucosa (RGM); assay type: tissue-based
T1 sequence (whole entry): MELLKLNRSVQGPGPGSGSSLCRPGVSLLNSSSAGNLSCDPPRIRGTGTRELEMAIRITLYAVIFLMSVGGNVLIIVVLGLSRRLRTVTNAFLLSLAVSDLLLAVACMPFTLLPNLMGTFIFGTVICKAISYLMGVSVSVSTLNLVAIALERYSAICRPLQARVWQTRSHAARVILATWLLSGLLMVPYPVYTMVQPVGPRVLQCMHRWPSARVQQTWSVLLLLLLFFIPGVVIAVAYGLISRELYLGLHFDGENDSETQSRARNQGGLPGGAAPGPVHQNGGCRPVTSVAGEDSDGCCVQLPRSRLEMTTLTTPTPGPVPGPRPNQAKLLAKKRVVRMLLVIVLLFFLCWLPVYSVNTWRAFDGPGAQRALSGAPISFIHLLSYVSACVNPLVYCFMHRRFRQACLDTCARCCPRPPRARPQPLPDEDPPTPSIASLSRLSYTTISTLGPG

[2] = target: T2, Cholecystokinin receptor type A (Cavia porcellus) (UniProt Q63931); assay: Tested for selectivity toward Cholecystokinin type A receptor by guinea -pig isolated ileum longitudinal muscle-myenteric plexus (GPI) assay; assay type: tissue-based
T2 sequence (whole entry): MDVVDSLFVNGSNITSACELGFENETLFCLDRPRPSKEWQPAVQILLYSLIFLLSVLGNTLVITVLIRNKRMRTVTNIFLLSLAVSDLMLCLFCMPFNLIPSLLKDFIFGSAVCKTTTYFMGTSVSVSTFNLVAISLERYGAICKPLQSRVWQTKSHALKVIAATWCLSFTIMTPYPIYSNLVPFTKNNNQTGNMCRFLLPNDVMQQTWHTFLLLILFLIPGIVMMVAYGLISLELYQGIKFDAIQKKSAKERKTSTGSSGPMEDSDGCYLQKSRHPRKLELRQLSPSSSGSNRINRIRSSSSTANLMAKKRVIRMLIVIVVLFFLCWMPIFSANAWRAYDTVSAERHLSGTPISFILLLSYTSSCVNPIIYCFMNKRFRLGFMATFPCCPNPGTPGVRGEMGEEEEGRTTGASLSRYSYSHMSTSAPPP

[3] = system: Rattus norvegicus; assay: Compound was tested for its ability to inhibit acid secretion in the pentagastrin stimulated gastric fistula rat model by intravenous dose of 1 mg/kg; assay type: functional; conditions: Stomach
[4] = Compound was tested for plasma clearance in rat; assay type: ADME, organism-based; conditions: read-out: Clp
[5] = target: T3, Cholecystokinin receptor type A (Homo sapiens, UniProt P32238); assay: Tested for its selectivity against human Cholecystokinin type A receptor isolated from a human gallbladder cDNA library and stably transfected into a COSM6 cell line (n=1); assay type: cell-based
T3 sequence (P32238 whole entry): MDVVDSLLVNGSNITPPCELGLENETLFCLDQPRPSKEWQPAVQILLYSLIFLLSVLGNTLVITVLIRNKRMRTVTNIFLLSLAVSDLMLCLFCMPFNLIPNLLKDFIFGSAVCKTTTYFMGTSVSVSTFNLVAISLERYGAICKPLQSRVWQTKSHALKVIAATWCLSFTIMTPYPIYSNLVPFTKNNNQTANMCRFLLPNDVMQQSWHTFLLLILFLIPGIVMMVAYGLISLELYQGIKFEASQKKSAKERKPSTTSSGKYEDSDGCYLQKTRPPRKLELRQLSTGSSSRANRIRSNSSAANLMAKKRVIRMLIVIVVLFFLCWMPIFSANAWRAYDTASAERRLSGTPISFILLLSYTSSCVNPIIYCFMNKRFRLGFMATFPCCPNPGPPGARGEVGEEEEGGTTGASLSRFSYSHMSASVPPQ

[6] = system: Rattus norvegicus; assay: Compound was tested for its ability to inhibit acid secretion in the pentagastrin stimulated gastric fistula rat model by intra gastric dose of 1 mg/kg; assay type: functional; conditions: Stomach
[7] = target: T4, Gastrin/cholecystokinin type B receptor (Homo sapiens, UniProt P32239); assay: Tested for its selectivity against human Cholecystokinin type B receptor isolated from a human temporal cortex cDNA library and stably transfected into a HeLa cell line. (n=1); assay type: cell-based
T4 sequence (P32239 whole entry): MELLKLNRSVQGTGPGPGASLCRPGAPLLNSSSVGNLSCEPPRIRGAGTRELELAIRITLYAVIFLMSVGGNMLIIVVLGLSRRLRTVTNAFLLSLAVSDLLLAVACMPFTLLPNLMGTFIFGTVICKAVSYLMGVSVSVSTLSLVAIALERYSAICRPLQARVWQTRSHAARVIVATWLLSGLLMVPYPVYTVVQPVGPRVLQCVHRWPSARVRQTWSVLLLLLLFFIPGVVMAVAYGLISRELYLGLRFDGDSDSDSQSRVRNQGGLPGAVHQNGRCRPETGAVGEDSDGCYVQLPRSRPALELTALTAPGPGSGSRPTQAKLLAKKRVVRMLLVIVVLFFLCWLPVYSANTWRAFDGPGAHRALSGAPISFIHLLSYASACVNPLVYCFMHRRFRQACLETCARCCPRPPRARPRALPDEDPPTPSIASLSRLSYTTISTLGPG

[8] = Oral bioavailability in rat; assay type: ADME, organism-based; conditions: in vivo
[9] = target: T3, Cholecystokinin receptor type A; assay: Tested for its selectivity against human Cholecystokinin type A receptor isolated from a human gallbladder cDNA library and stably transfected into a COSM6 cell line; (n=1); assay type: cell-based
[10] = system: Rattus norvegicus; assay: Tested for its ability to inhibit acid secretion in the pentagastrin stimulated gastric fistula rat model by intra gastric dose of 0.3 mg/kg; assay type: functional; conditions: Stomach
[11] = system: Rattus norvegicus; assay: Tested for its ability to inhibit acid secretion in the pentagastrin stimulated gastric fistula rat model by intravenous dose of 0.3 mg/kg; assay type: functional; conditions: Stomach
[12] = system: Rattus norvegicus; assay: Tested for its ability to inhibit acid secretion in the pentagastrin stimulated gastric fistula rat model by intra gastric dose of 1 mg/kg; assay type: functional; conditions: Stomach
[13] = system: Rattus norvegicus; assay: Tested for its ability to inhibit acid secretion in the pentagastrin stimulated gastric fistula rat model by intravenous dose of 0.1 mg/kg; assay type: functional; conditions: Stomach
[14] = target: T1, Gastrin/cholecystokinin type B receptor (Rattus norvegicus); conditions: Gastric mucosa

In the case of `O=C(Nc1ccccc1)NC1C(=O)N(CC(=O)N2CCCC2)c2ccccc2N(c2ccccc2)C1=O` (stereo unspecified), the pKB [1] is reported as 8.5 and the pKB [2] is reported as 7.3.

For `O=C(Nc1ccc(F)cc1)NC1C(=O)N(CC(=O)N2CCCC2)c2ccccc2N(c2ccccc2F)C1=O` (stereo unspecified), the pKB [1] was 8.6, the pKB [2] was 6.8 and the inhibition in vivo at 1 mg/kg [3] was 86%. It also gave a clearance [4] of 0.9 L/h/kg, a Ki [5] of 0.0501 µM and an inhibition in vivo at 1 mg/kg [6] of 73%. For the same compound, the Ki [7] was 0.0126 µM and the bioavailability [8] was 68%.

For `O=C(Nc1ccc(F)cc1)N[C@H]1C(=O)N(CC(=O)N2CCCC2)c2ccccc2N(C2CCCCCC2)C1=O`, the Ki [9] was 0.0794 µM, the Ki [7] was 0.00158 µM and the bioavailability [8] was 10%.

Work on `O=C(Nc1ccc(F)cc1)N[C@H]1C(=O)N(CC(=O)N2CCCC2)c2ccccc2N(C2CCCCC2)C1=O` yielded a Ki [9] of 0.0794 µM, an inhibition in vivo at 0.3 mg/kg [10] of 67% and a clearance [4] of 2.16 L/h/kg. For the same compound, the inhibition in vivo at 0.3 mg/kg [11] was 60%, the Ki [7] was 0.00251 µM and the bioavailability [8] was 23%.

Compound `O=C(Nc1cccc(C2N=NN=N2)c1)NC1C(=O)N(CC(=O)N2CCCC2)c2ccccc2N(c2ccccc2)C1=O` (stereo unspecified) has a pKB [1] of 10.3, a pKB [2] of 7.4 and an inhibition in vivo at 1 mg/kg [12] of 45%. For the same compound, the inhibition in vivo at 0.1 mg/kg [13] was 79%.

With `O=C(Nc1ccc(F)cc1)NC1C(=O)N(CC(=O)N2CC3CCC(CC3)C2)c2ccccc2N(c2ccccc2F)C1=O` (racemic) the Ki [9] was 0.01 µM, the clearance [4] was 1.68 L/h/kg and the Ki [7] was 0.000398 µM. For the same compound, the bioavailability [8] was 7%.

Work on `O=C(Nc1cccc(C(=O)O)c1)NC1C(=O)N(CC(=O)N2CCCC2)c2ccccc2N(c2ccccc2)C1=O` (stereo unspecified) yielded a pKB [1] of 8.6 and a pKB [2] of 5.7.

Compound `Cc1cccc(NC(=O)N[C@@H]2N=C(c3ccccc3)c3ccccc3N(C)C2=O)c1` has a pKB [14] of 7.6 and a pKB [2] of 7.7.
